US9752110B2, “Method and compositions of preserving wine” (YSDR, LLC, priority 2008, dated 2017)

How the values were obtained:
[1] = tested on: eNOS; settings: cited from earlier work
[2] = tested on: acetobacter xilum; experiment: Antibacterial specificity: acetobacter
[3] = tested on: lactobacilus; experiment: Antibacterial specificity: lactobacilli
[4] = tested on: bacteria and fungi in wine; settings: cited from earlier work
[5] = cited from earlier work
[6] = tested on: malolactic conversion; experiment: Effect on malolactic conversion in wine
Excerpt: Another important process in wine-making is the Malolactic fermentation. Malic acid is naturally present in the grape must, but it adds an unpleasant taste to the wine. […] As discussed above, nearly all red wines undergo malolactic fermentation. As discussed above, the conversion is usually carried out by introducing a lactobacteria (most commonly the Oenococus-Oeni lactobacteria) to the wine after an initial fermentation step. […] Therefore, in wine preserved with resveratrol and/or pterostilbene, the malolactic fermentation can take place during the initial alcohol-fermentation process. That is, no separate step of malic and lactic fermentation needs to be carried out when wine is preserved with resveratrol and/or pterostilbene.

Compound	eNOS expression or eNOS promoter activity [1]	other results
COc1cc(C=CC(=O)O)cc(OC)c1O (stereo in doubt) [sinapinic acid]	did not change	–
Oc1ccc(/C=C/c2cc(O)cc(O)c2)cc1 [Resveratrol, 3,4′,5-trihydroxy-trans-stilbene]	most efficacious stimulator	inhibition of acetobacter xilum [2]: specific inhibitor; anti-bacterial properties against lactobacilus [3]: no anti-bacterial properties; antibacterial and antifungal activity in wine [4]: antibacterial and antifungal activity
O=C(O)c1ccccc1 [benzoic acid]	enhanced eNOS expression moderately	–
O=C(O)/C=C/c1ccc(O)c(O)c1 [caffeic acid]	enhanced eNOS expression moderately	–
COc1cc(/C=C/C(=O)O)ccc1O [ferulic acid]	did not change	–
O=c1c(O)c(-c2ccc(O)c(O)c2)oc2cc(O)ccc12 [fisetin]	did not change	–
O=C(O)c1cc(O)c(O)c(O)c1 [gallic acid]	did not change	–
O=c1c(O)c(-c2cc(O)c(O)c(O)c2)oc2cc(O)cc(O)c12 [myricetin]	did not change	–
O=C(O)/C=C/c1ccc(O)cc1 [p-coumaric acid]	enhanced eNOS expression moderately	–
COc1cc(/C=C/c2ccc(O)cc2)cc(OC)c1 [pterostilbene, 4-[(E)-2,(3,5-dimethoxyphenyl)ethenyl]phenol]	–	water solubility [5]: less water soluble than resveratrol
COc1cc(C(=O)O)ccc1O [vanillic acid]	enhanced eNOS expression moderately	–
catechin	did not change	–
sulfur dioxide [SO2]	–	effect on malolactic conversion [6]: suppress the malolactic conversion
